Legend:
[1] = system: HDACs (HeLa cell nuclear extracts); experiment: HDAC enzymatic activity, Biomol Color de Lys system; format: biochemical; conditions: 1 hour, 25° C.
Procedure: (E) an In Vitro Assay which Determines the Ability of a Test Compound to Inhibit HDAC Enzymatic Activity.
HDAC inhibitory activity was assessed using the Biomol Color de Lys system (AK-500, Biomol, Plymouth Meeting, Pa.). Briefly, HeLa cell nuclear extracts were used as a source of HDACs. Different concentrations of test compounds were serially diluted in dimethylsulphoxide (DMSO) and added to HeLa cell nuclear extracts in the presence of a colorimetric artificial substrate. Final assay condition contained 50 mM Tris/Cl, pH 8.0, 137 mM NaCl, 2.7 mM KCl and 1 mM MgCl2. Reactions were carried in room temperature (25° C.) for 1 hour before addition of developer for termination. Relative enzyme activity was measured in the WALLAC Victor II 1420 microplate reader as fluorescence intensity (excitation: 350-380 nm; emission: 440-460 nm). Data were analyzed using GraphPad Prism (v4.0a) with a sigmoidal dose response curve fitting for IC50 calculation.

PI3Kα (p110α/p85α) = target: T1, PI3Kα (p110α/p85α) (Homo sapiens, UniProt P42336); experiment: PI3Kα ADP-Glo assay; format: biochemical; conditions: 20 μM PIP2, 10 μM ATP, 30 minutes
T1 construct: GST (N); made in house; host or cells: Baculovirus-infected Sf9 cells
T1 sequence (P42336 whole entry): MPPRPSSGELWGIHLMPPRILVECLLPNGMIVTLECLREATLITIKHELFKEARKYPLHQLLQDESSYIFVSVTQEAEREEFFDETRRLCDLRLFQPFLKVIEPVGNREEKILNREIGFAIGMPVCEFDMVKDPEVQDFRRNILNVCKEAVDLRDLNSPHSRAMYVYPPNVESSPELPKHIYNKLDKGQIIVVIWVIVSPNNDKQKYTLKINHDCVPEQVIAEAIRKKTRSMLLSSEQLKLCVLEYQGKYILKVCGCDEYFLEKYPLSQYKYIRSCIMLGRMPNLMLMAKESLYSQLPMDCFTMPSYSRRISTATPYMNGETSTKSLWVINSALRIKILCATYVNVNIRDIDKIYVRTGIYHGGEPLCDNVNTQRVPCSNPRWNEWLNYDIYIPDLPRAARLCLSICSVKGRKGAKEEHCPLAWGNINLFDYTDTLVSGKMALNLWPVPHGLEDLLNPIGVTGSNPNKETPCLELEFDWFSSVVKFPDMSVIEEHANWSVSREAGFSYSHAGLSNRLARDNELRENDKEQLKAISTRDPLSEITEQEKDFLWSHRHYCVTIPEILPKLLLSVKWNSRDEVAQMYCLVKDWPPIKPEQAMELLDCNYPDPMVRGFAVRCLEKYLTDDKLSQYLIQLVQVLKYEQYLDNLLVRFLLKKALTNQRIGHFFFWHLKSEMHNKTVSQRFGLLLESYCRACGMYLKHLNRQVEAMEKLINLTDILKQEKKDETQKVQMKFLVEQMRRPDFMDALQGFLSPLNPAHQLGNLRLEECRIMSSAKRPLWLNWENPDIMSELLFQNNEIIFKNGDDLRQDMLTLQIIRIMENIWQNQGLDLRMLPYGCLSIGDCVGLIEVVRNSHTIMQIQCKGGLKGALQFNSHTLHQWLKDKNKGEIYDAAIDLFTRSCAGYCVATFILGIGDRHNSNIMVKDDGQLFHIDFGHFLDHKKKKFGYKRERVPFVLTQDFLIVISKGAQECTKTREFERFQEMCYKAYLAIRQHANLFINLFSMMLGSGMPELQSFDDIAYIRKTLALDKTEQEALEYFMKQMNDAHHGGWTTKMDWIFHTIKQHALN
T1 sequence (P27986 whole entry partner): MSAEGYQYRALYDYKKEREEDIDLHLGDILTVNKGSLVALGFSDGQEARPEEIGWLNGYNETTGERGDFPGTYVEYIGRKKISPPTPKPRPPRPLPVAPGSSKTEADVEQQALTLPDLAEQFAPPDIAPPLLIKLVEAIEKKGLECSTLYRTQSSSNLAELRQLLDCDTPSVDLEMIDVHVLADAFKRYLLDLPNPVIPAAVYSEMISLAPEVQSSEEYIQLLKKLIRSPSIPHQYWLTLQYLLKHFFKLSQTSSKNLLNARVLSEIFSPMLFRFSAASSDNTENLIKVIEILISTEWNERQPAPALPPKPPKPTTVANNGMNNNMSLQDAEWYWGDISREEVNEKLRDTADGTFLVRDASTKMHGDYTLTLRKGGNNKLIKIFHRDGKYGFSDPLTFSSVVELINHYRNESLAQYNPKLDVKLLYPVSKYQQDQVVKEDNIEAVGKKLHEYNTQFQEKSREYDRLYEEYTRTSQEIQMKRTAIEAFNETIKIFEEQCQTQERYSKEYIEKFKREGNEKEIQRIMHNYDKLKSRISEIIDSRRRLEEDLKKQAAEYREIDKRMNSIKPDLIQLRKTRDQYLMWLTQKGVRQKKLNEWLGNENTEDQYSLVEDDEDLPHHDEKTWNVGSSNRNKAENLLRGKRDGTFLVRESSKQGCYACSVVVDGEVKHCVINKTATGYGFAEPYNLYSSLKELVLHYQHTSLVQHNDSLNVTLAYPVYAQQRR
Procedure: (A) an In Vitro Assay which Determines the Ability of a Test Compound to Inhibit PI3Kα.
Activity of PI3Kα was measured using ADP-Glo assay from Promega. PI3Kα, a complex of N-terminal GST-tagged recombinant full-length human p110α (GenBank, Accession No. U79143) and N-terminal His tagged recombinant full length human p85a (GenBank Accession No. XM—043865) were co-expressed in a Baculovirus infected Sf9 cell expression system. The ADP-Glo assay was performed to measure the amount of ADP generated from ATP hydrolysis coupled with PIP2 phosphorylation by the purified recombinant PI3Kα (p110α/p85α). PI3Kα was incubated with 20 μM PIP2 substrate in the reaction buffer (50 mM HEPES, pH 7.4, 150 mM NaCl, 5 mM MgCl2, 1 mM DTT, 3 uM Naorthovanadate, 10 μM ATP and 0.5% DMSO) for 30 minutes at room temperature. The ADP generated was then detected by ADP-Glo assay from Promega, a luminescent ADP detection assay. The ADP-Glo assay is performed in two steps; first, after the kinase reaction, ADP-Glo Reagent is added to terminate the kinase reaction and deplete the remaining ATP. Second, the Kinase Detection Reagent is added to simultaneously convert ADP to ATP and allow the newly synthesized ATP to be measured using a luciferase/luciferin reaction.

melting point [°C]	IC50 [1] [µM]	IC50 (PI3Kα (p110α/p85α)) [µM]	Compound
139 to 143			CS(=O)(=O)N1CCN(Cc2cc3nc(-c4cccc5c4cnn5CCCCC(=O)NO)nc(N4CCOCC4)c3s2)CC1 [Compound 3, N-hydroxy-5-(4-(6-((4-(methylsulfonyl)piperazin-1-yl)methyl)-4-morpholinothieno[3,2-d]pyrimidin-2-yl)-1H-indazol-1-yl)pentanamide]
	< 0.1	< 0.1	CNc1ccc(-c2nc(N3CCOCC3)c3sc(NCCCCC(=O)NO)cc3n2)cn1 [Compound 228, N-Hydroxy-5-(2-(6-(methylamino)pyridin-3-yl)-4-morpholino-thieno[3,2-d]pyrimidin-6-ylamino)pentanamide]
	< 0.1	< 0.1	COc1ccc(-c2nc(N3CCOCC3)c3sc(NCCCCC(=O)NO)cc3n2)cn1 [Compound 230]
	< 0.1	< 0.1	O=C(CCCCNc1cc2nc(-c3cc(O)ccc3F)nc(N3CCOCC3)c2s1)NO [Compound 231]
	< 0.1	< 0.1	Nc1ccc(-c2nc(N3CCOCC3)c3sc(CN(CCO)c4ncc(C(=O)NO)cn4)cc3n2)cn1 [Compound 235]
	< 0.1	0.1 to 1	CNc1ccc(-c2nc(N3CCOCC3)c3sc(C(C)(C)N(C)c4ncc(C(=O)NO)cn4)cc3n2)cn1 [Compound 241]
	0.1 to 1	< 0.1	CNc1ccc(-c2nc(N3CCOCC3)c3sc(N(C)c4ncc(C(=O)NO)cn4)cc3n2)cn1 [Compound 243]
	< 0.1	< 0.1	CNc1ccc(-c2nc(N3CCOCC3)c3sc(CN(CCO)c4ncc(C(=O)NO)cn4)cc3n2)cn1 [Compound 245]
	< 0.1	< 0.1	COc1ccc(-c2nc(N3CCOCC3)c3sc(C(C)N(C)c4ncc(C(=O)NO)cn4)cc3n2)cn1 (stereo not shown) [Compound 247, N-hydroxy-2-((1-(2-(6-methoxypyridin-3-yl)-4-morpholino-thieno[3,2-d]pyrimidin-6-yl)ethyl)(methyl)amino)pyrimidine-5-carboxamide]
	< 0.1	< 0.1	COc1ccc(-c2nc(N3CCOCC3)c3sc(C(C)(C)Nc4ncc(C(=O)NO)cn4)cc3n2)cn1 [Compound 250, N-Hydroxy-2-(2-(2-(6-methoxypyridin-3-yl)-4-morpholino-thieno[3,2-d]pyrimidin-6-yl)propan-2-ylamino)pyrimidine-5-carboxamide]
	0.1 to 1	< 0.1	COc1ccc(-c2nc(N3CCOCC3)c3sc(Nc4ncc(C(=O)NO)cn4)cc3n2)cn1 [Compound 253]
	< 0.1	0.1 to 1	CN(Cc1cc2nc(-c3ccc(O)nc3)nc(N3CCOCC3)c2s1)c1ncc(C(=O)NO)cn1 [Compound 254]
	< 0.1	> 10	CN(Cc1cc2nc(-c3ccc(OCc4ccccc4)nc3)nc(N3CCOCC3)c2s1)c1ncc(C(=O)NO)cn1 [Compound 260]
	< 0.1	0.1 to 1	COc1ncc(-c2nc(N3CCOCC3)c3sc(C(C)(C)N(C)c4ncc(C(=O)NO)cn4)cc3n2)cn1 [Compound 264]
	< 0.1	0.1 to 1	CN(Cc1cc2nc(-c3cnc(OCc4ccccc4)nc3)nc(N3CCOCC3)c2s1)c1ncc(C(=O)NO)cn1 [Compound 266]
	< 0.1	1 to 10	CC(C)(Nc1ncc(C(=O)NO)cn1)c1cc2nc(-c3ccc(N)cc3)nc(N3CCOCC3)c2s1 [Compound 269, 2-(2-(2-(4-Aminophenyl)-4-morpholinothieno[3,2-d]pyrimidin-6-yl)propan-2-ylamino)-N-hydroxypyrimidine-5-carboxamide]
	< 0.1	< 0.1	CN(c1ncc(C(=O)NO)cn1)c1cc2nc(-c3ccc(N)cc3)nc(N3CCOCC3)c2s1 [Compound 272]
	0.1 to 1	< 0.1	Nc1ccc(-c2nc(N3CCOCC3)c3sc(Nc4ncc(C(=O)NO)cn4)cc3n2)cc1 [Compound 273]
	< 0.1	< 0.1	Nc1ccc(-c2nc(N3CCOCC3)c3sc(CN(CCO)c4ncc(C(=O)NO)cn4)cc3n2)cc1F [Compound 277]
	< 0.1	0.1 to 1	CC(C)C(=O)Nc1ccc(-c2nc(N3CCOCC3)c3sc(CN(C)c4ncc(C(=O)NO)cn4)cc3n2)cc1 [Compound 286]
	< 0.1	> 10	CC(C)OC(=O)Nc1ccc(-c2nc(N3CCOCC3)c3sc(CN(C)c4ncc(C(=O)NO)cn4)cc3n2)cc1 [Compound 287]
	< 0.1	> 10	CN(Cc1cc2nc(-c3cccc(NS(C)(=O)=O)c3)nc(N3CCOCC3)c2s1)c1ncc(C(=O)NO)cn1 [Compound 288]

melting point [°C]	IC50 [1] [µM]	IC50 (PI3Kα (p110α/p85α)) [µM]	Compound
	< 0.1	> 10	CN(Cc1cc2nc(-c3cccc(S(=O)(=O)CCO)c3)nc(N3CCOCC3)c2s1)c1ncc(C(=O)NO)cn1 [Compound 291]
	< 0.1	0.1 to 1	C/C(=N/O)c1ccc(F)c(-c2nc(N3CCOCC3)c3sc(CN(C)c4ncc(C(=O)NO)cn4)cc3n2)c1 [Compound 298]
	< 0.1	0.1 to 1	C/C(=N/O)c1cccc(-c2nc(N3CCOCC3)c3sc(CN(C)c4ncc(C(=O)NO)cn4)cc3n2)c1 [Compound 299]
	< 0.1	0.1 to 1	CC(=O)c1cccc(-c2nc(N3CCOCC3)c3sc(CN(C)c4ncc(C(=O)NO)cn4)cc3n2)c1 [Compound 300]
	< 0.1	> 10	CN(Cc1cc2nc(-c3cccc(C(C)(C)O)c3)nc(N3CCOCC3)c2s1)c1ncc(C(=O)NO)cn1 [Compound 302]
	< 0.1	0.1 to 1	CN(Cc1cc2nc(-c3cccc(C(=O)O)c3)nc(N3CCOCC3)c2s1)c1ncc(C(=O)NO)cn1 [Compound 303]
	< 0.1	1 to 10	CN(Cc1cc2nc(-c3cccc(C(=O)OC(C)(C)C)c3)nc(N3CCOCC3)c2s1)c1ncc(C(=O)NO)cn1 [Compound 304]
	< 0.1	0.1 to 1	CN(Cc1cc2nc(-c3cccc(S(N)(=O)=O)c3)nc(N3CCOCC3)c2s1)c1ncc(C(=O)NO)cn1 [Compound 305]
	< 0.1	0.1 to 1	CN(Cc1cc2nc(-c3cccc(CCO)c3)nc(N3CCOCC3)c2s1)c1ncc(C(=O)NO)cn1 [Compound 306]
	0.1 to 1	0.1 to 1	Nc1ccc(-c2nc(N3CCOCC3)c3sc(S(=O)(=O)NCC4CCN(c5ncc(C(=O)NO)cn5)CC4)cc3n2)cc1 [Compound 309]
	< 0.1	0.1 to 1	Cc1ncc(-c2nc(N3CCOCC3)c3sc(CN(CCO)c4ncc(C(=O)NO)cn4)cc3n2)s1 [Compound 312]
	< 0.1	< 0.1	CN(Cc1cc2nc(-c3cccc4[nH]c(=S)[nH]c34)nc(N3CCOCC3)c2s1)c1ncc(C(=O)NO)cn1 [Compound 315]
	< 0.1	< 0.1	CN(Cc1cc2nc(-c3cccc4[nH]c(=O)sc34)nc(N3CCOCC3)c2s1)c1ncc(C(=O)NO)cn1 [Compound 317]
	0.1 to 1	0.1 to 1	CCCc1nc2cc(/C=C/C(=O)NO)ccc2n1CCN(C)Cc1cc2nc(-c3ccc(NC)nc3)nc(N3CCOCC3)c2s1 [Compound 322]
	0.1 to 1	< 0.1	CCCc1nc2cc(/C=C/C(=O)NO)ccc2n1CCNCc1cc2nc(-c3ccc(NC)nc3)nc(N3CCOCC3)c2s1 [Compound 323]
	0.1 to 1	0.1 to 1	CCCc1nc2cc(/C=C/C(=O)NO)ccc2n1CCN(C)Cc1cc2nc(-c3ccc(N)cc3)nc(N3CCOCC3)c2s1 [Compound 324]
	0.1 to 1	1 to 10	CCCc1nc2cc(/C=C/C(=O)NO)ccc2n1CCNCc1cc2nc(-c3ccc(N)cc3)nc(N3CCOCC3)c2s1 [Compound 325]
	0.1 to 1	0.1 to 1	Cn1c(CNCc2cc3nc(-c4ccc(N)cc4)nc(N4CCOCC4)c3s2)nc2cc(/C=C/C(=O)NO)ccc21 [Compound 326]
	0.1 to 1	1 to 10	CN(Cc1cc2nc(-c3ccc(N)cc3)nc(N3CCOCC3)c2s1)Cc1nc2cc(/C=C/C(=O)NO)ccc2n1C [Compound 327]
	0.1 to 1	< 0.1	CNc1ccc(-c2nc(N3CCOCC3)c3sc(CNCc4nc5cc(/C=C/C(=O)NO)ccc5n4C)cc3n2)cn1 [Compound 328]
	0.1 to 1	< 0.1	CNc1ccc(-c2nc(N3CCOCC3)c3sc(CN(C)Cc4nc5cc(/C=C/C(=O)NO)ccc5n4C)cc3n2)cn1 [Compound 329]

From patent US20130102595A1 (Curis, Inc., priority 2011, published 2013)
